According to US20040082664A1, “Derivatives of hydroxyphenyl, a method for preparing thereof and their pharmaceutical composition” (priority 2002, published 2004):

Tests used:
GST-fused lck SH2 domain = biological target: T1, GST-fused lck SH2 domain (Homo sapiens, UniProt P06239); experiment: Inhibition of in vitro binding of lck SH2 domain to its cognate pYEEI peptide (BIAcore 2000); settings: IC50 class for inhibition of GST-lckSH2 binding to immobilized biotinylated […]pYEEIPI peptide; read-out: BOND DEGREE WITH SH2 OF 1ck
T1 construct: GST (Glutathione transferase)-fused lck SH2 domain
T1 sequence (P06239 127-224 limits assumed): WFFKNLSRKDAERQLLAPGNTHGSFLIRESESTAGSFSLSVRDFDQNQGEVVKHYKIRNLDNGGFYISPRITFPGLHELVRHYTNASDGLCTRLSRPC
Method: The present inventors investigated the inhibition activity of phenyl derivatives on the interaction of GST (Glutathione transferase)-fused lck SH2 domain and a peptide […]pYEEIPI (comprising the sequence PYEEI, a cognate peptide of Lck SH2) by using a real time sensorgram (BIAcore 2000).
At first, the biotinylated peptide was fixed on the surface of BIAcore analysis apparatus and then GST-lckSH2 protein was injected over the surface of the immobilized peptides. The binding of GST-lck SH2 with the peptide is represented as the resonance units (referred as “RU” hereinafter) and 1,000 RU corresponds to a change in surface concentration of 1 ng/mm^2. The binding of GST-lck with the fixed peptide causes the change of refractory index, leading to the increase of RU. In the mean time, when the binding of GST-lck with the fixed peptide is inhibited, RU decreases. Those results are represented in Table 1.

IL-2 promoter = IL-2 promoter luciferase reporter assay in anti-CD3 activated Jurkat cells; assay type: cell-based; settings: Homo sapiens, TCR-induced (anti-CD3) IL-2 promoter luciferase, 2 h pre-incubation
Method: In order to confirm whether the compounds of the invention can pass through a cell membrane and inhibit the expression of IL-2 gene leading to T-cell proliferation, the present inventors firstly confirmed T-cell activity by detecting the activity of the luciferase fused on the downstream of IL-2 promoter.
To investigate the activity of IL-2 promoter, Jurkat cells (1×10^6) were transfected with a IL-2 reporter plasmids using Superfect™ (Qiagen Inc.). After 24 hours of transfection, Jurkat cells were pre-incubated with compounds of various concentrations (1 uM-50 uM) for 2 hours and further cultured on 35mm plate pre-coated with 5 ug/ml of anti-CD3 antibody, resulting in T cell activation. The luciferase activity was measured using Berthold luminometer LB953. The IC50 (50% inhibition concentration) of the compounds of the invention on TCR-induced IL-2 promoter activation are shown in Table 2.

[1] = test system: collagen-induced rheumatoid arthritis; experiment: Inhibition of collagen-induced rheumatoid arthritis in DBA1/LacJ mice; assay type: in vivo, mouse; design: key: sum of 4 leg scores (0-4 each), max 16; settings: maximum 16, mean ± standard deviation
Method: After 2 weeks, booster immunization was carried out with 50 μg C II/IFA. From the 3rd week after primary immunization, compounds of the present invention were injected daily into peritoneal cavities of 6-8 mice per group for 15-20 days.
The vehicle control groups were injected daily with 100 μl of 5% ethanol-olive oil mixture in total 15-20 times. Widely used anti-rheumatic drug, Methotrexate, was dissolved in PBS and then injected to mice at 1 mg/kg/day every other day in total 8-10 times. Meanwhile, the compounds of the invention were dissolved in ethanol and then mulsified in olive oil, in which the final ethanol concentration was adjusted to 5% and the compounds of this invention was 50 mg/kg/day.
From the 3rd week after primary immunization, the extent of edema and the joint swelling was monitored everyday to determine arthritic index. Arthitic index is the sum of the arthritic scores of all 4 legs and, therefore, maximum arthritis index of 16 can be achieved (e.g., [4 (maximum arthritic score)/leg]×[4 legs/mouse]=16 (maximum arthritis index/mouse)). […] was presented by the mean arthritis index±standard deviation of each mouse group.

[2] = 50 mg/kg/day i.p. daily, day 15 after treatment (day 36 after primary immunization), sum of scores of four legs

SMILES	IC50 (GST-fused lck SH2 domain) [µM]	IC50 (IL-2 promoter) [µM]	Arthritis index [1, 2]	Arthritis index ([1]; Methotrexate 1 mg/kg/day every other day in PBS, day 15 after treatment)
CCCOC(=O)[C@@H](Cc1ccc(O)c(O)c1)N(C)C(=O)/C=C/c1ccc(O)c(O)c1 [Example 32]	10 to 25	9	5.3 ± 1.7	–
O=C(O)[C@@H](Cc1ccc(O)c(O)c1)NC(=S)/C=C/c1ccc(O)c(O)c1 [Example 16, 3-(3,4-dihydroxy-phenyl)-(R)-2-[3-trans-(3,4-dihydroxy-phenyl)-thioacryloylamino]-propionic acid]	25 to 50	6.7	7.2 ± 1.2	–
CCOC(=O)[C@@H](Cc1ccc(O)c(O)c1)N(C)C(=O)/C=C/c1ccc(O)c(O)c1 [Example 31]	10 to 25	8.9	5.9 ± 2.1	–
CCOC(=O)[C@H](Cc1ccc(O)c(O)c1)N(C)C(=O)/C=C/c1ccc(O)c(O)c1 [Example 38, 3-(3,4-dihydroxy-phenyl)-(S)-2-{[3-trans-(3,4-dihydroxy-phenyl)-acryloyl]-methyl-amino}-propionic acid ethyl ester]	10 to 25	11	5.5 ± 1.3	–
NC(=O)[C@@H](Cc1ccc(O)c(O)c1)NC(=S)/C=C/c1ccc(O)c(O)c1 [Example 21, 3-(3,4-dihydroxy-phenyl)-(R)-2-[3-trans-(3,4-dihydroxy-phenyl)-thioacryloylamino]-propioneamide]	10 to 25	7.8	5.8 ± 1.3	–
CN(C(=O)/C=C/c1ccc(O)c(O)c1)[C@H](Cc1ccc(O)c(O)c1)C(=O)O [Example 30]	25 to 50	15.8	6.5 ± 0.6	–
CC(C)OC(=O)[C@@H](Cc1ccc(O)c(O)c1)N(C)C(=O)/C=C/c1ccc(O)c(O)c1 [Example 33, 3-(3,4-dihydroxy-phenyl)-(R)-2-{[3-trans-(3,4-dihydroxy-phenyl)-acryloyl]-methyl-amino}-propionic acid isopropyl ester]	10 to 25	7.8	5.7 ± 0.9	–
CCOC(=O)[C@@H](Cc1ccc(O)c(O)c1)NC(=O)/C=C/c1ccc(O)c(O)c1 [Example 3, 3-(3,4-dihydroxy-phenyl)-(R)-2-[3-trans-(3,4-dihydroxy-phenyl)-acryloylamino]-propionic acid ethyl ester]	< 10	4.8	4.5 ± 0.8	–
CC(C)OC(=O)[C@H](Cc1ccc(O)c(O)c1)NC(=S)/C=C/c1ccc(O)c(O)c1 [Example 26, 3-(3,4-dihydroxy-phenyl)-(S)-2-[3-trans-(3,4-dihydroxy-phenyl)-thioacryloylamino]-propionic acid isopropyl ester]	25 to 50	18.7	7.0 ± 0.9	–
NC(=O)[C@@H](Cc1ccc(O)c(O)c1)NC(=O)/C=C/c1ccc(O)c(O)c1 [Example 7]	< 10	2.4	4.3 ± 1.5	–
CCOC(=O)[C@H](Cc1ccc(O)c(O)c1)NC(=S)/C=C/c1ccc(O)c(O)c1 [Example 24, 3-(3,4-dihydroxy-phenyl)-(S)-2-[3-trans-(3,4-dihydroxy-phenyl)-thioacryloylamino]-propionic acid ethyl ester]	10 to 25	10.8	6.1 ± 0.6	–
CN(Cc1cnc2nc(N)nc(N)c2n1)c1ccc(C(=O)N[C@@H](CCC(=O)O)C(=O)O)cc1 [MTX, methotrexate, reference compound]	–	–	–	4.0 ± 1.1

The next lines start with results.

IC50 (GST-fused lck SH2 domain) [µM]	IC50 (IL-2 promoter) [µM]	SMILES	Arthritis index [1, 2]	Arthritis index ([1]; Methotrexate 1 mg/kg/day every other day in PBS, day 15 after treatment)
25 to 50	17.3	CN(C(=O)/C=C/c1ccc(O)c(O)c1)[C@@H](Cc1ccc(O)c(O)c1)C(=O)O [Example 37, 3-(3,4-dihydroxy-phenyl)-(S)-2-{[3-trans-(3,4-dihydroxy-phenyl)-acryloyl]-methyl-amino}-propionic acid]	6.7 ± 0.7	–
25 to 50	–	COC(=O)[C@@H](Cc1ccc(O)c(O)c1)NC/C=C/c1ccc(O)c(O)c1 [Example 53, 3-(3,4-dihydroxy-phenyl)-2-[3-(3,4-dihydroxy-phenyl)-arylamino]-propionic acid methyl ester]	–	–
25 to 50	13.9	COC(=O)[C@H](Cc1ccc(O)c(O)c1)NC(=S)/C=C/c1ccc(O)c(O)c1 [Example 22]	6.9 ± 1.2	–
10 to 25	8.7	CC(C)OC(=O)[C@H](Cc1ccc(O)c(O)c1)N(C)C(=O)/C=C/c1ccc(O)c(O)c1 [Example 40, 3-(3,4-dihydroxy-phenyl)-(S)-2-{[3-trans-(3,4-dihydroxy-phenyl)-acryloyl]-methyl-amino}-propionic acid isopropyl ester]	5.9 ± 0.4	–
10 to 25	5.6	CCCOC(=O)[C@@H](Cc1ccc(O)c(O)c1)NC(=S)/C=C/c1ccc(O)c(O)c1 [Example 18, 3-(3,4-dihydroxy-phenyl)-(R)-2-[3-trans-(3,4-dihydroxy-phenyl)-thioacryloylamino]-propionic acid propyl ester]	5.8 ± 0.3	–
10 to 25	8.9	CC(C)OC(=O)[C@@H](Cc1ccc(O)c(O)c1)NC(=S)/C=C/c1ccc(O)c(O)c1 [Example 19, 3-(3,4-dihydroxy-phenyl)-(R)-2-[3-trans-(3,4-dihydroxy-phenyl)-thioacryloylamino]-propionic acid isopropyl ester]	5.1 ± 1.1	–
25 to 50	14.9	CN(C(=O)/C=C/c1ccc(O)c(O)c1)[C@H](Cc1ccc(O)c(O)c1)C(=O)OC(C)(C)C [Example 34, 3-(3,4-dihydroxy-phenyl)-(R)-2-{[3-trans-(3,4-dihydroxy-phenyl)-acryloyl]-methyl-amino}-propionic acid tert-butyl ester]	6.3 ± 0.8	–
10 to 25	4.6	CCOC(=O)[C@@H](Cc1ccc(O)c(O)c1)NC(=S)/C=C/c1ccc(O)c(O)c1 [Example 17, 3-(3,4-dihydroxy-phenyl)-(R)-2-[3-trans-(3,4-dihydroxy-phenyl)-thioacryloylamino]-propionic acid ethyl ester]	5.4 ± 0.7	–
10 to 25	7.8	COC(=O)[C@@H](Cc1ccc(O)cc1)NC(=O)/C=C/c1ccc(O)c(O)c1 [Example 45]	5.7 ± 0.9	–
10 to 25	17.1	COC(=O)[C@@H](Cc1ccc(O)c(O)c1)NC(=S)/C=C/c1ccc(O)c(O)c1 [Example 15, 3-(3,4-dihydroxy-phenyl)-(R)-2-[3-trans-(3,4-dihydroxy-phenyl)-thioacryloylamino]-propionic acid methyl ester]	5.7 ± 0.9	–
25 to 50	21.4	CC(C)(C)OC(=O)[C@@H](Cc1ccc(O)c(O)c1)NC(=S)/C=C/c1ccc(O)c(O)c1 [Example 20, 3-(3,4-dihydroxy-phenyl)-(R)-2-[3-trans-(3,4-dihydroxy-phenyl)-thioacrylolamino]-propionic acid tert-butyl ester]	6.7 ± 0.4	–
< 10	6.5	CC(C)OC(=O)[C@@H](Cc1ccc(O)c(O)c1)NC(=O)/C=C/c1ccc(O)c(O)c1 [Example 5, 3-(3,4-dihydroxy-phenyl)-(R)-2-[3-trans-(3,4-dihydroxy-phenyl)-acryloylamino]-propionic acid isopropyl ester]	4.9 ± 1.2	–
10 to 25	7.6	COC(=O)[C@@H](Cc1ccc(O)c(O)c1)N(C)C(=O)/C=C/c1ccc(O)c(O)c1 [Example 29, 3-(3,4-dihydroxy-phenyl)-(R)-2-{[3-trans-(3,4-dihydroxy-phenyl)-acryloyl]-methyl-amino}-propionic acid methyl ester]	6.1 ± 2.1	–
